# Data from ChEMBL document CHEMBL3124851, “A perspective on natural products research and ethnopharmacology in Mexico: the eagle and the serpent on the prickly pear cactus” (J Nat Prod, 2014).
# What was measured:
# D(3) dopamine receptor = D(3) dopamine receptor (Homo sapiens, UniProt P35462); assay: Agonist activity at dopamine D3 receptor (unknown origin)
# Rattus norvegicus = organism: Rattus norvegicus; assay: Increase in dopamine level in rat striatum by microdialysis assay (reference value: 4.2 nM); type: functional
# [1] = Stimulation of dopaminergic neurons in rat posterior ventral tegmental area relative to ethanol; type: functional
# Mus musculus [2] = assay: Antinociceptive activity in mouse at 2 mg/kg, ip by writhing test; type: functional; details: route intraperitoneal
# Ileum = assay: Spasmolytic activity in guinea pig ileum; type: functional, tissue-based; details: Cavia porcellus
# Mus musculus [3] = assay: Antinociceptive activity in mouse at 3 mg/kg, ip by writhing test; type: functional; details: route intraperitoneal
# Chain of D(3) dopamine receptor (P35462 whole entry): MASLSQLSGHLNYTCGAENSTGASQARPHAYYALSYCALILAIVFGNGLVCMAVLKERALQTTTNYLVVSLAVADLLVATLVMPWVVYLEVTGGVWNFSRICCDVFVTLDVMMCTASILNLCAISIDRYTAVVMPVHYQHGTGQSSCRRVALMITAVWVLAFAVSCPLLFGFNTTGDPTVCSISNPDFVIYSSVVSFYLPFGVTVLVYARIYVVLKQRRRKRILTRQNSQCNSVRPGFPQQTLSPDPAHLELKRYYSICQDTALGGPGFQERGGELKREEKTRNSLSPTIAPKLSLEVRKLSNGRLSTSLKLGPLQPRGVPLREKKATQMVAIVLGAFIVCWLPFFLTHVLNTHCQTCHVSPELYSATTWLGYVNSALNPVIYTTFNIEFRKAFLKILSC
smiles,measurement,setting,value
C[C@@H]1NCCc2cc(O)c(O)cc21,Ki,D(3) dopamine receptor,500 nM
same,Activity,Rattus norvegicus,21.5 nM
CC1NCCc2cc(O)c(O)cc21 (configuration not stated),fold change (FC),[1],1000000
C[C@H]1NCCc2cc(O)c(O)cc21,Activity,Rattus norvegicus,300 nM
COc1ccc(-c2cc(=O)c3c(O)cc(O)cc3o2)cc1 [ACACETIN],Activity,Mus musculus [2],50%
same,IC50,Ileum,1100 nM
C[C@H]1[C@H](C)CC[C@]2(C(=O)O)CC[C@]3(C)C(=CC[C@@H]4[C@@]5(C)CC[C@H](O)C(C)(C)[C@@H]5CC[C@]43C)[C@H]12 [URSOLIC ACID],Activity,Mus musculus [3],50%
